{
  "source": "paper PMC7238232",
  "about": "“Acamprosate Is a Substrate of the Human Organic Anion Transporter (OAT) 1 without OAT3 Inhibitory Properties: Implications for Renal Acamprosate Secretion and Drug–Drug Interactions” (Pharmaceutics, 2020)",
  "key": {"[1]": {"assay": "Clinical pharmacokinetics in humans (literature)", "conditions": "for Cmax,u: acamprosate, calculated"}, "[2]": {"system": "TAUT", "conditions": "Caco-2 cells, preliminary data; cited from earlier work"}, "[3]": {"system": "HEK293-Flp-In mock cells", "assay": "Control uptake studies in HEK293-Flp-In mock cells", "method": "All uptake experiments were performed on 24- or 96-well plates. Before the experiment initiation, the cells were incubated with either 500 or 200 µL∙well^−1 prewarmed buffer for 10 min at 37 °C in a microplate incubator (VWR International AB, Stockholm, Sweden), without shaking. […] The experiment was stopped by adding 200 µL∙well^−1 of ice-cold buffer and subsequent rinse three times with the same amount of buffer. […] A total of 50 µL of cell lysate from each well was transferred to 96-well Luma plates bottom coated with dry scintillant. Then, 2∙20 µL of each donor and three 50 µL blank samples were applied on the same plate. The dry plates were covered with transparent seals and analyzed using a TopCount NXT Microplate Scintillation and Luminescence Counter (Perkin Elmer, Waltham, MA, USA). The remaining 20 µL cell lysate was neutralized with 20 µL 1M HCl∙well^−1, samples were mixed thoroughly and the total protein content in all the wells was measured using a BCA protein assay kit, microplate method, and a Tecan Safire II fluorometer (Tecan Austria GmbH, Grödig, Austria). […] The total protein content was measured by using a BCA protein assay kit and a FLUOStar Omega fluorescence microplate reader (BMG Labtech, Ortenberg, Germany). The protein assay for the OAT3 and mock cell lines was performed in four independent wells of each cell line, seeded and treated in the same manner as the cells used in the uptake assay. For all the OAT1, OAT3, and mock isotope uptake studies, the radiolabelled tracer accumulation (pmol) in each well was calculated by first determining the activity of the isotope (DPM∙pmol^−1) from the radioactivity (DPM) of the donor sample divided by the theoretical isotope concentration (pmol), then dividing the total radioactivity in the well (DPM) to the specific activity of the isotope (DPM∙pmol^−1)."}, "[4]": {"molecular_target": "T1, OAT1 (Homo sapiens, UniProt Q4U2R8)", "T1 sequence (Q4U2R8 1-563)": "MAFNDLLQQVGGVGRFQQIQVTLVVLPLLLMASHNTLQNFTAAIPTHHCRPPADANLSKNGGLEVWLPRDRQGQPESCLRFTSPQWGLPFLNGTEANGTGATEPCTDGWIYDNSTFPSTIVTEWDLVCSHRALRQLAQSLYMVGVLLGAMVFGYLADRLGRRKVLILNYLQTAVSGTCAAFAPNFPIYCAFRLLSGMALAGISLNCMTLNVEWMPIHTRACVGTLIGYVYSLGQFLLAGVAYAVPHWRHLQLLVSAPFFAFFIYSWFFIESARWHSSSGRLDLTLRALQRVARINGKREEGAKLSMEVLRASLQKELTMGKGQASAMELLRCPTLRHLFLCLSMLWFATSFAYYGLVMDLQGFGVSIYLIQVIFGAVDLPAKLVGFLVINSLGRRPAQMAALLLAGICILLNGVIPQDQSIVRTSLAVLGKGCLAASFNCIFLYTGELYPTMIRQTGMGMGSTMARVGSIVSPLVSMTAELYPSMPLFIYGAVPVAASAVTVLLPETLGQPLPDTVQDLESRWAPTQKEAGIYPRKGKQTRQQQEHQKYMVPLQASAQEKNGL", "assay": "Acamprosate intracellular uptake and inhibition of uptake in HEK293-Flp-In OAT1 cells (LC/MS-MS)", "assay_type": "cell-based", "set-up": "expressed in transfected cells; host or cells: HEK293-Flp-In", "description": "The obtained intracellular amounts (pmol) were normalized to the assay time (min) and cell surface area (cm^2) or protein amount (mg protein) to obtain a term hereafter referred to as uptake rate. The uptake rate of acamprosate as a function of concentration was fitted to a Michaelis–Menten type equation which includes a saturable and a non-saturable uptake component, (1) V=Vmax · [S]/Km +[S]+P · [S] where V is the substrate uptake rate; Vmax is the maximal uptake rate; P is a constant related to non-saturable apparent uptake, i.e., factors such as passive diffusion, unspecific binding and residual compound present after washing steps, and [S] is the substrate concentration (µM). […] Assuming competitive interaction, equilibrium dissociation constants, Ki, were calculated from the IC50 value for each substrate/inhibitor pair, at substrate Km, using the Cheng–Prusoff equation [24]."}, "[5]": {"system": "ASBT", "conditions": "Caco-2 cells, preliminary data; cited from earlier work"}, "[6]": {"system": "PAT1", "conditions": "Caco-2 cells, preliminary data; cited from earlier work"}, "[7]": {"conditions": "200 µM acamprosate, 10 min, Lab. 1"}},
  "data": [
    {"smiles": "CC(=O)NCCCS(=O)(=O)O", "note": "[acamprosate, acetylhomotaurinate]", "values": [
      {"measurement": "Cmax,u", "setting": "[1]; IV bolus, 333 mg", "value": "153 ± 38", "unit": "µM"},
      {"measurement": "Cmax,u", "setting": "[1]; IV bolus, 666 mg", "value": "214 ± 10", "unit": "µM"},
      {"measurement": "Cmax,u", "setting": "[1]; IV bolus, 710 mg", "value": "230 ± 64", "unit": "µM"},
      {"measurement": "Cmax,u", "setting": "[1]; IV bolus, 1420 mg", "value": "486 ± 106", "unit": "µM"},
      {"measurement": "Cmax,u", "setting": "[1]; IV bolus, 2130 mg", "value": "768 ± 149", "unit": "µM"},
      {"measurement": "Cmax,u", "setting": "[1]; oral solution, 333 mg", "value": "1.8 ± 0.8", "unit": "µM"},
      {"measurement": "Cmax,u", "setting": "[1]; oral solution, 666 mg", "value": "4.3 ± 1.4", "unit": "µM"},
      {"measurement": "Cmax,u", "setting": "[1]; oral solution, 1332 mg", "value": "5.0 ± 1.7", "unit": "µM"},
      {"measurement": "Cmax,u", "setting": "[1]; oral solution, 2664 mg", "value": "8.6 ± 4.1", "unit": "µM"},
      {"measurement": "Cmax,u", "setting": "[1]; oral tablet, 666 mg", "value": "1.4 ± 1.1", "unit": "µM"},
      {"measurement": "Cmax,u", "setting": "[1]; oral tablet, 1332 mg", "value": "1.5 ± 0.1", "unit": "µM"},
      {"measurement": "contribution of active secretion to total CLR", "setting": "[1]; estimated from CLR and GFR·fu", "value": "more than 44%"},
      {"measurement": "inhibition of substrate transport via TAUT", "setting": "[2]", "value": "did not inhibit"},
      {"measurement": "effect on uptake of [3H]-E3S in mock cells", "setting": "[3]; 0.02 µM [3H]-E3S, 200 µM E3S, 300 µM or 0.2–1022 µM probenecid, 10,000 µM acamprosate, Lab. 2", "value": "did not affect"},
      {"measurement": "effect on uptake of [14C]-PAH in mock cells", "setting": "[3]; 9.5 µM [14C]-PAH, 200 µM PAH, 300 µM or 0.02–1022 µM probenecid, acamprosate, Lab. 1", "value": "did not inhibit"},
      {"measurement": "saturability of dose-dependent substrate uptake in mock cells", "setting": "[3]; same substrate concentrations as in transfected cells, acamprosate 0.33–3300 µM", "value": "not saturable"},
      {"measurement": "acamprosate uptake in OAT1 expressing cells compared to mock and OAT3 expressing cells", "setting": "[4]; [7]", "value": "statistically significantly higher"},
      {"measurement": "acamprosate uptake rate in OAT1 cells relative to mock-transfected cells", "setting": "[4]; [7]", "value": "approximately 20 fold"},
      {"measurement": "P, non-saturable apparent uptake constant", "setting": "[4]; HEK293-Flp-In OAT1 cells, Lab. 1", "value": "0.35 ± 0.04", "unit": "µL∙mg protein^−1∙min^−1"},
      {"measurement": "uptake by OAT1 as compared to OAT3", "setting": "[4]; criterion of relatively OAT1-specific substrate", "value": "at least 5 ×"},
      {"measurement": "inhibition of substrate transport via ASBT", "setting": "[5]", "value": "did not inhibit"},
      {"measurement": "inhibition of substrate transport via PAT1", "setting": "[6]", "value": "did not inhibit"}
    ]}
  ]
}
